The record followed here is patent US11944637B2, “Biomaterials comprising hyaluronic acid binding peptides and extracellular matrix binding peptides for hyaluronic acid retention and tissue engineering applications” (THE JOHNS HOPKINS UNIVERSITY, priority 2013, dated 2024).

No end group written: not given here.

The test system of one assay is articular cartilage. As to the kind of experiment: Visualization of the HA-bound layer with biotinylated HA on cartilage covalently modified with HABPep. The assay is classed as binding, bovine. To be noted: after washing, compared to unmodified cartilage incubated with HA-biotin alone. The method, then:
C-HABPep was conjugated to articular cartilage through a heterobifunctional poly(ethylene glycol) (PEG) spacer. Maleimide-PEG-N-hydroxysuccinimide (MAL-PEG-NHS, 3.5 kDa, Jenkem Technologies), which has functionalities that are thiol- and amine-reactive, was dissolved to 5 mM in 50 mM sodium bicarbonate, pH 7.5 and added to the articular surface. The NHS groups were allowed to react with endogenous amines on the cartilage surface for 30 minutes. PEGylation was confirmed by attenuated total reflectance Fourier transform IR spectroscopy (ATR-FTIR; Bruker Vector 22 with a Pike Miracle ATR attachment). Following thorough washes in buffer to remove unreacted crosslinker, a 1.5 mM solution of C-HABPep was added to the surface to react with maleimide groups for an additional 30 minutes. Surfaces were carefully washed to remove unreacted peptide, yielding a cartilage surface with covalently attached HA-binding functionality. Visualization of the HA-bound layer. Cartilage was conjugated with C-HABPep and incubated with biotinylated HA synthesized as previously described. Briefly, HA (975 kDa) was dissolved in 50 mM boric acid, pH 5.2 at 2 mg/ml. This was combined with biotin hydrazide (Sigma) in a 20:1 weight ratio. […] The reaction was allowed to proceed at room temperature for 16 hours, after which it was dialyzed to remove unreacted biotin hydrazide and EDC. […]

Another assay addresses collagen I (Homo sapiens, UniProt P02452+P08123). As to the kind of experiment: Binding of collagen binding peptides conjugated to PEG-fluorescein on a thin coating of collagen I on TCP (fluorescence). To be noted: for Normalized fluorescence intensity on collagen I coating: after washing, FIG. 2D, 2K; for Fluorescence intensity, binding on collagen I coating: compared to control and scrambled peptide, FIG. 2C, 2J. The source says:
(§1) FIGS. 2A-2K depict the clinically-relevant, non-covalent strategy, for one-step application of HA binding polymer system on tissue surface of the present invention. 2A, The first step in this strategy for coating a tissue surface is the reaction of a maleimide-PEG-NHS crosslinker with primary amines of the HA-binding peptide. Subsequently, peptides that non-covalently bind to ECM components, such as collagen I and collagen II, also having a thiol end group, is reacted to the maleimide. Finally, this polymer-peptide system of the present invention is mixed with an HA solution that binds to the peptide-polymer system, which on a single application makes a biomaterial-HA coating on the tissue surface. The binding of the collagen binding peptides were analyzed on thin coatings of collagen I and II on polystyrene tissue culture plates. A thin coating of collagen I on TCP with: 2B, i) No peptide, only PEG-fluorescein as a control, ii) scrambled collagen I binding peptide conjugated to PEG-fluorescein, iii) collagen I binding peptide conjugated to PEG-fluorescein, iv) scrambled collagen II binding peptide conjugated to PEG-fluorescein, v) collagen II binding peptide conjugated to PEG-fluorescein. […] A thin coating of collagen II on TCP with: 2G, i) No peptide, only PEG-fluorescein as a control, ii) scrambled collagen I binding peptide conjugated to PEG-fluorescein, iii) collagen I binding peptide conjugated to PEG-fluorescein, iv) scrambled collagen II binding peptide conjugated to PEG-fluorescein, v) collagen II binding peptide conjugated to PEG-fluorescein.
(§2) Second, a clinically relevant one-step injection/coating technology of the present invention was developed based on non-covalent binding of the HABpeptide-polymer system. Tissue surfaces, including, for example, articular cartilage, conjunctiva and sclera of an eye, are collagen I and II enriched, and can act as stable anchoring sites for the ECM binding peptides (ECMBPep). The HA-binding peptide that is linked to the ECMBPep through the PEG spacer can recapture HA that is lost through a physical or biological mechanism and can dynamically bind and concentrate HA where it is needed. Specifically, amine functionality of Col I and II ECMBPep were reacted with NHS-PEG-MAL followed by conjugation of C-HABPep to the Maleimide end groups. The resultant biomaterial composition of the present invention is mixed with HA and applied to tissue surfaces in a single step (FIG. 2A).

The target of another assay is collagen II (Homo sapiens, UniProt P02458). Put plainly: Binding of collagen binding peptides conjugated to PEG-fluorescein on a thin coating of collagen II on TCP (fluorescence). To be noted: for Normalized fluorescence intensity on collagen II coating: after washing, FIG. 2F, 2I; for Fluorescence intensity, binding on collagen II coating: compared to control and scrambled peptide, FIG. 2E, 2H.
Source text: as §1, §2

The test system of assay [1] is normal human articular cartilage. Put plainly: Lubrication testing (cartilage-on-cartilage friction), normal cartilage. The method, then:
(§3) Cartilage sample preparation for lubrication testing. Cartilage samples were prepared for lubrication testing as a modification on previously published protocols (Arthritis and rheumatism 56, 882-891, (2007); Arthritis and rheumatism 50, 516-525, (2004)). Both normal and osteoarthritis tissue samples were ordered through (NDRI, Philadelphia, PA). Tissue samples were received within 24 hours post-mortem or surgery. Normal and diseased samples were received in a sterile container containing Dulbecco's Modified Eagle Medium (DMEM), and protease inhibitor cocktail. Biopsy punches were used to isolate cylindrical disks (radius=6 mm) and annuli (outer radius=4 mm, inner radius=1.5 mm) with small holes punctured through the cylinder walls to improve fluid depressurization. Due to the 24-hour time point in media washing for 24-hours to eliminate any lubricin, HA, and SAPLs; instead samples were washed for 4-6 hours in PBS on a shaker. HA sample groups were always incubated in HA solution (5 mg/mL) for 24-hours post-washing (FIGS. 4b,c). It should be noted that human cartilage was scarce especially in OA samples received.
In later experiments, covalent modification of cartilage surface by HABpep (FIG. 1) was performed on bovine articular cartilage samples. All non-covalent HABpep modification and in vitro lubrication studies were performed using human articular cartilage samples (FIG. 3). Normal human tissue was isolated from cadavers […]. Human OA cartilage samples were isolated from the patients with ages, 58 (F), 60 (F), 61 (M), 65 (M), 69 (M), 71 (F), who underwent total knee arthroplasty. Care was taken to avoid damaging the articular surface during dissection. Samples (outer diameter=8.0 mm, inner diameter=3.0 mm) were microtomed and evenly cut to obtain a flat surface. The superficial layer was maintained intact and only the deep layer of cartilage was cut to obtain a flat layer to glue to the metal counter-surface while friction measurements. Cartilage was used fresh without freezing or the addition of protease inhibitors so as not to change the surface lubrication properties. Samples were washed vigorously in PBS overnight to deplete the cartilage surface of any residual synovial fluid, after which they were functionalized with an HA-binding layer as needed and incubated at 4° C. for about 24 hours in the test lubricant. […]
(§4) Lubrication testing. […] The samples were bathed in the test lubricant, measured with digital calipers, compressed to 82% of their original combined height, and preconditioned by rotating 2 revolutions in each direction at an effective sliding velocity of 3 mm/s, which is defined as the angular velocity times the effective radius of the annulus Reff=2/3[(Ro3−Ri3)/(Ro2−Ri2)]=2.94 mm. […]

Assay [2] deals with human OA cartilage (severely damaged, OA stage 3-4). As to the kind of experiment: Lubrication testing (cartilage-on-cartilage friction), OA cartilage. On the procedure:
as §3, with “HA sample groups were always incubated in HA solution (5 mg/mL) for 24-hours post-washing (FIGS. 4b,c). It should be noted that human cartilage was scarce especially in OA samples received.” left out
as §4

[3] abbreviates: normal cartilage without coating, tested in HA bath.
The mark [4] stands for this setting: normal cartilage, HA bath compared to PBS bath.

collagen I, sequence (P02452 162-1218 limits assumed): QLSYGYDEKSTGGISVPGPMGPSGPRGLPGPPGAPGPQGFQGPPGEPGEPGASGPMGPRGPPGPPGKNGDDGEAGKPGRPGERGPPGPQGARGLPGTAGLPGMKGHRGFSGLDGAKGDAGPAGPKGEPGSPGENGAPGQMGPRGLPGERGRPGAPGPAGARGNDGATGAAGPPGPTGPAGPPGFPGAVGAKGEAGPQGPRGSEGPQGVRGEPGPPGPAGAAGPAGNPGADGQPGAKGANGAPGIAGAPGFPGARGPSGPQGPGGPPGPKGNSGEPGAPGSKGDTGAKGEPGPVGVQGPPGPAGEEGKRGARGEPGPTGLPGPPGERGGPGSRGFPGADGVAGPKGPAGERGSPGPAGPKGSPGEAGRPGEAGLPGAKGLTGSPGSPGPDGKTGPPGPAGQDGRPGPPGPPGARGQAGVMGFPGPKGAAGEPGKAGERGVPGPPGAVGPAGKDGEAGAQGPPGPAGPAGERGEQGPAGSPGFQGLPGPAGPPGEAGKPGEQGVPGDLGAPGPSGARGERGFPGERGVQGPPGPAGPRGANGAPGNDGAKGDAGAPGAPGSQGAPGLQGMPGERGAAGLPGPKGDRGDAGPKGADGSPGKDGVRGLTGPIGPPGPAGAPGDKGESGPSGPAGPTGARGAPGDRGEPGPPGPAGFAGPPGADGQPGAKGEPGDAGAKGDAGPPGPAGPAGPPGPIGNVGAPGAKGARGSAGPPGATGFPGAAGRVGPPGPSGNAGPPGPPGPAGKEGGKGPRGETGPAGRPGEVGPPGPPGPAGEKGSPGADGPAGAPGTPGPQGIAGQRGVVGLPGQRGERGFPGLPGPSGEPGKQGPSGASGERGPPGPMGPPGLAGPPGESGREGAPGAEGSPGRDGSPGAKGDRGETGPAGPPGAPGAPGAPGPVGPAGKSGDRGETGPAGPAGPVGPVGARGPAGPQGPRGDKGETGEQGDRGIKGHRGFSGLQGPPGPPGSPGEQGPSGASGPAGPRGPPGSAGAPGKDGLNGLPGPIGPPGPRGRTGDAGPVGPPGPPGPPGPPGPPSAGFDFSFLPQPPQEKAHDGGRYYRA
collagen I, sequence (P08123 80-1119 limits assumed): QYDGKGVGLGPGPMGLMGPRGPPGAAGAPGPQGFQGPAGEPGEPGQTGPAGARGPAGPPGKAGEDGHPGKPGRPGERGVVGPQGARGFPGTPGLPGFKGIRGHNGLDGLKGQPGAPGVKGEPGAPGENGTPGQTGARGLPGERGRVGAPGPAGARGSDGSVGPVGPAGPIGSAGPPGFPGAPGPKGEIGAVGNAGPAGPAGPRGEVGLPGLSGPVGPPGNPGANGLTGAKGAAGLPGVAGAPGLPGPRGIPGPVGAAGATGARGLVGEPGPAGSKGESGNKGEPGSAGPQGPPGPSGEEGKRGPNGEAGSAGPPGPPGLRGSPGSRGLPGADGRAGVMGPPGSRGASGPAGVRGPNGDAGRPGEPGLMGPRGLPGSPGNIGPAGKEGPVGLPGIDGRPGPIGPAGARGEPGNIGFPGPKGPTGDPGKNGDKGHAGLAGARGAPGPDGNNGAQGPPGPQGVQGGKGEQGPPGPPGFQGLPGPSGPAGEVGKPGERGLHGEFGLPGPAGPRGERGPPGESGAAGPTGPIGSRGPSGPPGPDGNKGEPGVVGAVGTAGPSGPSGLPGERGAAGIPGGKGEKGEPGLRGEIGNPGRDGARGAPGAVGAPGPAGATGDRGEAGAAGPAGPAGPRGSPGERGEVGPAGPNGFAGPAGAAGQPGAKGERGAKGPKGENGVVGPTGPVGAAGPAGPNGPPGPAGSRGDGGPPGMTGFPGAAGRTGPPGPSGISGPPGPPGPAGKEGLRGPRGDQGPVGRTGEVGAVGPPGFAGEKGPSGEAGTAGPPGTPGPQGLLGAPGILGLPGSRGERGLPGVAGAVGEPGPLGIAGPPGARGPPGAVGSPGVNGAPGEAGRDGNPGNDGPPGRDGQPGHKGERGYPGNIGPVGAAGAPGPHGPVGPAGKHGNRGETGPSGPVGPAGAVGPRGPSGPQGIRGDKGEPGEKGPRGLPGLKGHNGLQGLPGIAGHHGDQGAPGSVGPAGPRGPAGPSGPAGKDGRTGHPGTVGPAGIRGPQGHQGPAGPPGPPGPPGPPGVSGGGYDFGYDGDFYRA
collagen II, sequence (P02458 182-1241 limits assumed): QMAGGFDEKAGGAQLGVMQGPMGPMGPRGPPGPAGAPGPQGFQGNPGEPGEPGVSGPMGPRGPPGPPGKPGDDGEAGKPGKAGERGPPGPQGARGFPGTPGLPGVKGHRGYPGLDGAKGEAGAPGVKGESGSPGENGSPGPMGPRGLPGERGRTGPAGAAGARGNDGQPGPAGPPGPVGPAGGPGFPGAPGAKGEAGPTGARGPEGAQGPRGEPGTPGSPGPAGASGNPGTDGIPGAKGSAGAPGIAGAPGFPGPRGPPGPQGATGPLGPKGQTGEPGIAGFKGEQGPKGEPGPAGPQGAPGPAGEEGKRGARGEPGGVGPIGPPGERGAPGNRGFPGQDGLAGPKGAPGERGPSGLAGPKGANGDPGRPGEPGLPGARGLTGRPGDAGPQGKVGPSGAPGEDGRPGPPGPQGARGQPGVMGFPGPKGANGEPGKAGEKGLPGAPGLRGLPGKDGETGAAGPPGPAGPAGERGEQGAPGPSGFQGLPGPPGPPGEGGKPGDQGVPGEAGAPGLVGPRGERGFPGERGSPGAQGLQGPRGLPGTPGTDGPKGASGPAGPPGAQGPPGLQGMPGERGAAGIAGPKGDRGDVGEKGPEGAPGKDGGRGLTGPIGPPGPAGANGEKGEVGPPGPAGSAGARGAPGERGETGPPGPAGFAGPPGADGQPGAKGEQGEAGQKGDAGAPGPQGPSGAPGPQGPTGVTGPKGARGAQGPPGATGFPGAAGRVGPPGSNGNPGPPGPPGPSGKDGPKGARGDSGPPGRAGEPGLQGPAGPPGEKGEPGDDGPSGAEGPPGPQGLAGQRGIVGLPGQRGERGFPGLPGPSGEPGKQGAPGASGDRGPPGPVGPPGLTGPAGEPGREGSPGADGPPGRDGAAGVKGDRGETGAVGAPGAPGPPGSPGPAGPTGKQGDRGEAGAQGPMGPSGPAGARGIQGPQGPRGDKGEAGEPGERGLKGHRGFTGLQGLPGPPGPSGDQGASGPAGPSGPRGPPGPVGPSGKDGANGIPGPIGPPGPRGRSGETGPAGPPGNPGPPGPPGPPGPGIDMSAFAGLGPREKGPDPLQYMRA

“CRRDDGAHWQFNALTVR (SEQ ID NO: 2) (thiol; MAL-PEG-NHS conjugated to cartilage; listed as Homo sapiens) [HA-binding polymer coating]”: the “Staining of bound biotinylated HA (streptavidin, horseradish peroxidase)” value in the assay on articular cartilage is listed as “stained darker”; in the assay with articular cartilage (listed as C-HABPep) it was “greater intensity of staining”.

Consider “WYRGRL (SEQ ID NO: 4) (also: PEG-fluorescein conjugate; listed as Homo sapiens) [collagen II binding peptide, ECMBPep for collagen II; tested conjugated to PEG-fluorescein]”, for which, in the assay with collagen I, the “Normalized fluorescence intensity on collagen I coating” value is “did not bind” and the “Fluorescence intensity, binding on collagen I coating” value is given as “no significant binding”. Also, in the assay with collagen II, the “Normalized fluorescence intensity on collagen II coating” value is listed as 1.65 times to that of scrambled peptide and the “Fluorescence intensity, binding on collagen II coating” value was “significant binding”.

In the case of “YSFYSDESLQ (SEQ ID NO: 3) (also: PEG-fluorescein conjugate; listed as Homo sapiens) [collagen I binding peptide, ECMBPep for collagen I; tested conjugated to PEG-fluorescein]”, in the assay with collagen I, the “Normalized fluorescence intensity on collagen I coating” value is given as 1.55 times to that of scrambled peptide and the “Fluorescence intensity, binding on collagen I coating” value is “significant binding”. Moreover, in the assay with collagen II, the “Normalized fluorescence intensity on collagen II coating” value is recorded as “did not bind” and the “Fluorescence intensity, binding on collagen II coating” value is “no significant binding”.

With hyaluronic acid [HA], in assay [1] (setting [3]), the “<μk> kinetic friction” value is 0.008 and the “<μs> static friction” value is reported as 0.018. Besides, in assay [1] (setting [4]), the “decrease of kinetic total friction value” was determined as 72% and the “decrease of static total friction value” amounted to 35%. Besides, the “static lubricity value (<μ> in PBS-<μ> in HA), most severely damaged OA samples vs normal cartilage” value in assay [2] (FIG. 4w) is “approximately 5 times”. Also, the “kinetic lubricity value (<μ> in PBS-<μ> in HA), most severely damaged OA samples vs normal cartilage” value in assay [2] (FIG. 4x) was “approximately 5 times”.
